Measurements reported in US20140031217A1, “HERBICIDAL COMPOSITIONS COMPRISING 4-AMINO-3-CHLORO-5-FLUORO-6-(4-CHLORO-2-FLUORO-3-METHOXYPHENYL)PYRIDINE-2-CARBOXYLIC ACID OR A DERIVATIVE THEREOF AND AUXIN TRANSPORT INHIBITORS” (DOW AGROSCIENCES LLC, priority 2012, published 2014).

Assays:
[1] = test system: ECHOR; experiment: In-water applied (paddy) greenhouse weed control, ECHOR; format: in vivo, Echinochloa oryzoides (Ard.) Fritsch
Procedure: Weed seeds or nutlets of the desired test plant species were planted in puddled soil (mud) prepared by mixing a shredded, non-sterilized mineral soil (50.5 percent silt, 25.5 percent clay, and 24 percent sand, with a pH of about 7.6 and an organic matter content of about 2.9 percent) and water at a 1:1 volumetric ratio. The prepared mud was dispensed in 365 mL aliquots into 16-ounce (oz.) non-perforated plastic pots with a surface area of 86.59 square centimeters (cm^2) leaving a headspace of 3 centimeters (cm) in each pot. Mud was allowed to dry overnight prior to planting or transplanting. Rice seeds were planted in Sun Gro MetroMix® 306 planting mixture, which typically has a pH of 6.0 to 6.8 and an organic matter content of about 30 percent, in plastic plug trays. Seedlings at the second or third leaf stage of growth were transplanted into 840 mL of mud contained in 32-oz. non-perforated plastic pots with a surface area of 86.59 cm^2 4 days prior to herbicide application. The paddy was created by filling the headspace of the pots with 2.5 to 3 cm of water. When required to ensure good germination and healthy plants, a fungicide treatment and/or other chemical or physical treatment was applied. The plants were grown for 4-22 days in a greenhouse with an approximate 14 h photoperiod which was maintained at about 29′C during the day and 26° C. during the night. Nutrients were added as Osmocote® (19:6:12, N:P:K+minor nutrients) at 2 g per 16-oz. pot and 4 g per 960-mL 32-oz. pot. Water was added on a regular basis to maintain the paddy flood, and supplemental lighting was provided with overhead metal halide 1000-Watt lamps as necessary. The plants were employed for testing when they reached the second or third true leaf stage.
Treatments consisted of the acid or esters of 4-amino-3-chloro-5-fluoro-6-(4-chloro-2-fluoro-3-methoxy-phenyl)pyridine-2-carboxylic acid (compound A) each formulated as an SC and various herbicidal components alone and in combination. Forms of compound A were applied on an acid equivalent basis.
(§1) Other herbicidal components were applied on an active ingredient basis and included auxin transport inhibiting (ATI) herbicides chlorflurenol-methyl (technical material), chlorflurenol (technical material), diflufenzopyr (technical material), dilfufenzopyr sodium (technical material), flurenol-methyl (technical material,) and naptalam (technical material).
Treatment requirements for each compound or herbicidal component were calculated based upon the rates being tested, the concentration of active ingredient or acid equivalent in the formulation, an application volume of 2 mL per component per pot, and an application area of 86.59 cm^2 per pot.
For formulated compounds, a measured amount was placed in an individual 100 or 200 mL glass vial and was dissolved in a volume of 1.25% (v/v) Agri-Dex® crop oil concentrate to obtain application solutions.
For technical grade compounds, a weighed amount was placed in an individual 100 to 200 mL glass vial and was dissolved in a volume of acetone to obtain concentrated stock solutions. […] The concentrated stock solutions obtained were diluted with an equivalent volume of an aqueous mixture containing 2.5% (v/v) crop oil concentrate so that the final application solutions contained 1.25% (v/v) crop oil concentrate.
Applications were made by injecting with a pipetter appropriate amounts of the application solutions, individually and sequentially, into the aqueous layer of the paddy. Control plants were treated in the same manner with the solvent blank. Applications were made so that all treated plant material received the same concentrations of acetone and crop oil concentrate.
The treated plants and control plants were placed in a greenhouse as described above and water was added as needed to maintain a paddy flood. […]

[2] = test system: LEFCH; experiment: Postemergence foliar-applied greenhouse weed control, LEFCH; format: in vivo, Leptochloa chinensis (L.) Nees
Source text: Seeds or nutlets of the desired test plant species were planted in a soil matrix prepared by mixing a loam or sandy loam soil (e.g., 28.6 percent silt, 18.8 percent clay, and 52.6 percent sand, with a pH of about 5.8 and an organic matter content of about 1.8 percent) and calcareous grit in an 80 to 20 ratio. The soil matrix was contained in plastic pots with a volume of 1 quart and a surface area of 83.6 square centimeters (cm^2). When required to ensure good germination and healthy plants, a fungicide treatment and/or other chemical or physical treatment was applied. The plants were grown for 8-22 days in a greenhouse with an approximate 14 h photoperiod which was maintained at about 29° C. during the day and 26° C. during the night. Nutrients (Peters Excel® 15-5-15 5-Ca 2-Mg and iron chelate) were applied in the irrigation solution as needed and water was added on a regular basis. Supplemental lighting was provided with overhead metal halide 1000-Watt lamps as necessary. The plants were employed for testing when they reached the first through fourth true leaf stage.
Treatments consisted of the acid or esters of 4-amino-3-chloro-5-fluoro-6-(4-chloro-2-fluoro-3-methoxy-phenyl) pyridine-2-carboxylic acid (Compound A), each formulated as an SC (suspension concentrate), and various herbicidal components alone and in combination. Forms of compound A were applied on an acid equivalent basis.
as §1, with “chlorflurenol” for “chlorflurenol-methyl”, “chlorflurenol-methyl” for “chlorflurenol”, “diflufenzopyr” for “dilfufenzopyr”, “material)” for “material,)”
Treatment requirements were calculated based upon the rates being tested, the concentration of active ingredient or acid equivalent in the formulation, and a 12 mL application volume at a rate of 187 L/ha.
For treatments comprised of formulated and technical compounds, weighed amounts of the technical materials were placed individually in 25 mL glass vials and dissolved in a volume of 97:3 v/v acetone/DMSO to obtain 12× stock solutions, and measured amounts of the formulated compounds were placed individually in 25 mL glass vials and diluted in a volume of 1.5% (v/v) crop oil concentrate or water to obtain 12× stock solutions. […] Application solutions were prepared by adding an appropriate amount of each stock solution (e.g., 1 mL) and diluted to the appropriate final concentrations with the addition of an appropriate amount of an aqueous mixture of 1.5% (v/v) crop oil concentrate so that the final spray solutions contained 1.25% (v/v) crop oil concentrate. When required, additional water and/or 97:3 v/v acetone/DMSO was added to individual application solutions so that the final acetone and DMSO concentrations of the application solutions being compared were 8.1% and 0.25%, respectively.
All stock solutions and applications solutions were visually inspected for compound compatibility prior to application. Spray solutions were applied to the plant material with an overhead Mandel track sprayer equipped with an 8002E nozzle calibrated to deliver 187 L/ha over an application area of 0.503 m^2 at a spray height of 18 to 20 inches (46 to 50 cm) above average plant canopy height. Control plants were sprayed in the same manner with the solvent blank.
The treated plants and control plants were placed in a greenhouse as described above and watered by sub-irrigation to prevent wash-off of the test compounds. After approximately 3 weeks, the condition of the test plants as compared with that of the untreated plants was determined visually and scored on a scale of 0 to 100 percent where 0 corresponds to no injury or growth inhibition and 100 corresponds to complete kill. […]

| Structure (SMILES) | Visual Weed Control (%) Obs ([1]; 20 DAA, 8.75 gae/ha) | Visual Weed Control (%) Obs ([1]; 20 DAA, 17.5 gae/ha) | Visual Weed Control (%) Obs ([1]; 20 DAA, 35 gae/ha) | Visual Weed Control (%) Obs ([1]; 22 DAA, 8.75 gae/ha) | Visual Weed Control (%) Obs ([1]; 22 DAA, 17.5 gae/ha) | Visual Weed Control (%) Obs ([1]; 22 DAA, 35 gae/ha) | Visual Weed Control (%) Obs ([2]; 20 DAA, 4.38 gae/ha) | Visual Weed Control (%) Obs ([2]; 20 DAA, 8.75 gae/ha) | Visual Weed Control (%) Obs ([2]; 20 DAA, 17.5 gae/ha) | Visual Weed Control (%) Obs ([2]; 21 DAA, 8.75 gae/ha) | Visual Weed Control (%) Obs ([2]; 21 DAA, 17.5 gae/ha) | Visual Weed Control (%) Obs ([1]; 19 DAA, 32 gae/ha) | Visual Weed Control (%) Obs ([1]; 20 DAA, 4.38 gae/ha) | Visual Weed Control (%) Obs ([2]; 21 DAA, 4.38 gae/ha) | Visual Weed Control (%) Obs ([2]; 22 DAA, 32 gae/ha) |
| --- | --- | --- | --- | --- | --- | --- | --- | --- | --- | --- | --- | --- | --- | --- | --- |
| COc1c(Cl)ccc(-c2nc(C(=O)O)c(Cl)c(N)c2F)c1F [Compound A Acid, 4-amino-3-chloro-6-(4-chloro-2-fluoro-3-methoxyphenyl)-5-fluoropyridine-2-carboxylic acid] | 10% | 15% | 25% | 0% | 20% | 20% | 0% | 30% | 30% | 30% | 30% | – | – | – | – |
| COc1c(Cl)ccc(-c2nc(C(=O)OCc3ccccc3)c(Cl)c(N)c2F)c1F [Compound A Benzyl Ester] | 15% | – | – | – | – | – | 15% | 30% | – | 40% | 50% | 25% | 10% | 15% | 40% |
